Source: patent publication US7326732B2, “EP2 receptor agonists” (Pharmagene Laboratories Limited, priority 2004, dated 2008)
Where two headings read alike, the source gives them in different places.

What was measured:
[1] = molecular target: T1, human EP2 prostanoid receptors (Homo sapiens, UniProt P43116); assay: Agonist activity at recombinant human EP2 prostanoid receptors (cAMP in HEK-293 clones); assay type: cell-based; conditions: for activity (EP2 part): functional classification at EP2
T1 construct: expressed in transfected cells; host or cells: HEK-293
T1 sequence (P43116 whole entry): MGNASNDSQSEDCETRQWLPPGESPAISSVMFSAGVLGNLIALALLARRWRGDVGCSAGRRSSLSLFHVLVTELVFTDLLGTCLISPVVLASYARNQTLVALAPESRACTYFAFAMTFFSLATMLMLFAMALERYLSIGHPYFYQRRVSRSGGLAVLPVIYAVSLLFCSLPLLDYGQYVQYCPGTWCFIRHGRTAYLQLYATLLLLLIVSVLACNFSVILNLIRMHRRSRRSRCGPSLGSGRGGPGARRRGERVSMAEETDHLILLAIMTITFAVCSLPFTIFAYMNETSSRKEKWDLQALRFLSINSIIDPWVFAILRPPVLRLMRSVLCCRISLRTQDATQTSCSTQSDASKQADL

[2] = molecular target: T2, human EP2 receptor (Homo sapiens, UniProt P43116); assay: Binding ability to human EP receptors ([3H]PGE2 displacement), EP2
T2 construct: expressed in transfected cells
T2 sequence (P43116 whole entry): as above
In short: (§1)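 Membranes from cells stably expressing human EP2, EP3 or EP4 incubated to equilibrium with [3H]PGE2 and compound at 0.1 to 10 000 nM. Non-specific binding defined with 10 uM PGE2; bound label separated by vacuum filtration and quantified by scintillation counting.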

[3] = molecular target: T3, human EP4 receptor (Homo sapiens, UniProt P35408); assay: Binding ability to human EP receptors ([3H]PGE2 displacement), EP4; conditions: membranes expressing human EP4; [3H]PGE2 1 nM; Cheng-Prusoff; read-out: pKi (M) EP4 (converted)
T3 construct: expressed in transfected cells
T3 sequence (P35408 whole entry): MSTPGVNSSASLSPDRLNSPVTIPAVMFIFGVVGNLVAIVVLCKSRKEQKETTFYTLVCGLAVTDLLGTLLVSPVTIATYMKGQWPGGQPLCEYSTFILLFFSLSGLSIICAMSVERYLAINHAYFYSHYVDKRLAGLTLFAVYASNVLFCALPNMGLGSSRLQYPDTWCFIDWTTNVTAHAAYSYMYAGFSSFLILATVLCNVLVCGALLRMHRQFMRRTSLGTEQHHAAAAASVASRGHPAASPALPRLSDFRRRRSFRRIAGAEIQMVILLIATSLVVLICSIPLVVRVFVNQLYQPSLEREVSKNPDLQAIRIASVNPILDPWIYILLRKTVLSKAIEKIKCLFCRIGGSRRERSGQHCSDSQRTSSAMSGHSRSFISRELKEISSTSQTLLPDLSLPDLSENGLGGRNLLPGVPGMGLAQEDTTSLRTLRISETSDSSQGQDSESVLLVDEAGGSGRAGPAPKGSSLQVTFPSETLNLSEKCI
In short: as §1

[4] = molecular target: T4, human EP3 receptor (Homo sapiens, UniProt P43115); assay: Binding ability to human EP receptors ([3H]PGE2 displacement), EP3; conditions: membranes expressing human EP3; [3H]PGE2 2.5 nM; Cheng-Prusoff; read-out: pKi (M) EP3 (converted)
T4 construct: expressed in transfected cells
T4 sequence (P43115 1-390): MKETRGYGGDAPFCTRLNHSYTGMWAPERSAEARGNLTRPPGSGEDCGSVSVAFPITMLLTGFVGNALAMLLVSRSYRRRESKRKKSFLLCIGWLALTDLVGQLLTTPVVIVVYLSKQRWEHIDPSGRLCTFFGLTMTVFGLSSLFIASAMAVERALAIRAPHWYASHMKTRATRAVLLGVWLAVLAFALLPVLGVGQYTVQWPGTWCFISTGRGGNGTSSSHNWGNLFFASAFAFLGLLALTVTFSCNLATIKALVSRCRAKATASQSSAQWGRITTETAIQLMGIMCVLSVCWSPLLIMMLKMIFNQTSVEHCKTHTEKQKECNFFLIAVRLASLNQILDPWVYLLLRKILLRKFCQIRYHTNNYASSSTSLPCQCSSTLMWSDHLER
In short: as §1

[5] = HEK-293 stably transfected with human EP2, cAMP accumulation, read-out: pEC50 EP2 (converted)
[6] = membranes expressing human EP2, [3H]PGE2 3 nM, Cheng-Prusoff, read-out: pKi (M) EP2 (converted)

In the case of `O=C(Nc1cccc(Cc2nnn[nH]2)c1)c1cccc(-c2ccc(Cl)cc2)n1` [Compound 95, 6-(4-Chloro-phenyl)-pyridine-2-carboxylic acid [3-(1H-tetrazol-5ylmethyl)-phenyl]-amide], the EC50 [1, 5] is reported as less than 0.1 µM, the “activity (EP2 part)” value [1] is reported as “EP2 Agonist” and the Ki [2, 6] is reported as less than 1e-07 M. The Ki [3] was greater than 1e-05 M and the Ki [4] was greater than 1e-05 M.
`O=C(Nc1ccc2sc(C(=O)O)cc2c1)c1ccc(-c2ccccc2)o1` [Compound 97, 5-[(5-Phenyl-furan-2-carbonyl)-amino]-benzo[b]thiophene-2-carboxylic acid] was tested, and the EC50 [1, 5] was less than 1 µM, the “activity (EP2 part)” value [1] was “EP2 Agonist” and the Ki [2, 6] was less than 1e-06 M. For the same compound, the Ki [3] was greater than 1e-05 M and the Ki [4] was greater than 1e-05 M.
For `CC/C(=C\c1cccc(NC(=O)c2ccc(-c3ccccc3)o2)c1)C(=O)O` [Compound 98, 2-{3-[(5-Phenyl-furan-2-carbonyl)-amino]-benzylidene}-butyric acid], the EC50 [1, 5] was less than 1 µM, the “activity (EP2 part)” value [1] was “EP2 Agonist” and the Ki [2, 6] was less than 1e-06 M. For the same compound, the Ki [3] was greater than 1e-05 M and the Ki [4] was greater than 1e-05 M.
In the case of `O=C(O)/C=C/c1cccc(NC(=O)c2ccc(-c3cccc(F)c3)o2)c1` [Compound 100, 3-(3-{[5-(3-Fluoro-phenyl)-furan-2-carbonyl]-amino}-phenyl)-acrylic acid], the EC50 [1, 5] is reported as less than 0.1 µM, the “activity (EP2 part)” value [1] is reported as “EP2 Agonist” and the Ki [2, 6] is reported as less than 1e-07 M. The Ki [3] was less than 1e-05 M and the Ki [4] was greater than 1e-05 M.
For `O=C(O)/C=C/c1cccc(NC(=O)c2ccc(-c3ccc4c(c3)OCO4)o2)c1` [Compound 101, 3-{3-[(5-Benzo[1,3]dioxol-5-yl-furan-2-carbonyl)-amino]-phenyl}-acrylic acid], the EC50 [1, 5] was less than 0.1 µM, the “activity (EP2 part)” value [1] was “EP2 Agonist” and the Ki [2, 6] was less than 1e-07 M. The Ki [3] was greater than 1e-05 M and the Ki [4] was greater than 1e-05 M.
`O=C(O)/C=C/c1cccc(NC(=O)c2cc(-c3ccccc3)ccc2F)c1` [Compound 107, 3-{3-[(4-Fluoro-biphenyl-3-carbonyl)-amino]-phenyl}-acrylic acid] was tested, and the EC50 [1, 5] was less than 0.1 µM, the “activity (EP2 part)” value [1] was “EP2 Agonist” and the Ki [2, 6] was less than 1e-07 M. It also gave a Ki [3] greater than 1e-05 M and a Ki [4] greater than 1e-05 M.
In the case of `O=C(O)/C=C/c1cccc(NC(=O)c2cc(-c3cccc(F)c3)ccc2F)c1` [Compound 108, 3-{3-[(4,3′-Difluoro-biphenyl-3-carbonyl)-amino]-phenyl}-acrylic acid], the EC50 [1, 5] is reported as less than 0.1 µM, the “activity (EP2 part)” value [1] is reported as “EP2 Agonist” and the Ki [2, 6] is reported as less than 1e-07 M. The Ki [3] was greater than 1e-05 M and the Ki [4] was greater than 1e-05 M.
With `O=C(O)/C=C/c1cccc(NC(=O)c2cccc(-c3cccc(F)c3)n2)c1` [Compound 110, 3-(3-{[6-(3-Fluoro-phenyl)-pyridine-2-carbonyl]-amino}-phenyl)-acrylic acid] the EC50 [1, 5] was less than 0.1 µM, the “activity (EP2 part)” value [1] was “EP2 Agonist” and the Ki [2, 6] was less than 1e-07 M. The Ki [3] was greater than 1e-05 M and the Ki [4] was greater than 1e-05 M.
`O=C(O)Cc1cccc(NC(=O)c2cc(-c3cccc(F)c3)ccc2F)c1` [Compound 111] was tested, and the EC50 [1, 5] was less than 0.1 µM, the “activity (EP2 part)” value [1] was “EP2 Agonist” and the Ki [2, 6] was less than 1e-07 M. It also gave a Ki [3] greater than 1e-05 M and a Ki [4] greater than 1e-05 M.
`O=C(O)/C=C/c1cccc(NC(=O)c2cc(-c3ccc(F)cc3)ccc2F)c1` [Compound 112, 3-{3-[(4,4′-Difluoro-biphenyl-3-carbonyl)-amino]-phenyl}-acrylic acid] was tested, and the EC50 [1, 5] was less than 0.1 µM, the “activity (EP2 part)” value [1] was “EP2 Agonist” and the Ki [2, 6] was less than 1e-07 M. It also gave a Ki [3] greater than 1e-05 M and a Ki [4] greater than 1e-05 M.
`O=C(O)Cc1cccc(NC(=O)c2cccc(-c3cccc(F)c3)n2)c1` [Compound 113, (3-{[6-(3-Fluoro-phenyl)-pyridine-2-carbonyl]-amino}-phenyl)-acetic acid] was tested, and the EC50 [1, 5] was less than 0.1 µM, the “activity (EP2 part)” value [1] was “EP2 Agonist” and the Ki [2, 6] was less than 1e-07 M. For the same compound, the Ki [3] was greater than 1e-05 M and the Ki [4] was greater than 1e-05 M.
In the case of `O=C(O)/C=C/c1cccc(NC(=O)c2csc(-c3ccccc3)n2)c1` [Compound 115, 3-{3-[(2-Phenyl-thiazole-4-carbonyl)-amino]-phenyl}-acrylic acid], the EC50 [1, 5] is reported as less than 0.1 µM, the “activity (EP2 part)” value [1] is reported as “EP2 Agonist” and the Ki [2, 6] is reported as less than 1e-07 M. The Ki [3] was greater than 1e-05 M and the Ki [4] was greater than 1e-05 M.
With `O=C(O)/C=C/c1cccc(NC(=O)c2csc(-c3cccc(F)c3)n2)c1` [Compound 116, 3-(3-{[2-(3-Fluoro-phenyl)-thiazole-4-carbonyl]-amino}-phenyl)-acrylic acid] the EC50 [1, 5] was less than 0.1 µM, the “activity (EP2 part)” value [1] was “EP2 Agonist” and the Ki [2, 6] was less than 1e-07 M. For the same compound, the Ki [3] was greater than 1e-05 M and the Ki [4] was greater than 1e-05 M.
In the case of `O=C(O)Cc1cccc(C(=O)Nc2cccc(-c3ccccc3)c2)c1` [Compound 117, [3-(Biphenyl-3-ylcarbamoyl)-phenyl]-acetic acid], the EC50 [1, 5] is reported as less than 10 µM, the “activity (EP2 part)” value [1] is reported as “EP2 Agonist” and the Ki [2, 6] is reported as less than 1e-06 M. For the same compound, the Ki [3] was greater than 1e-05 M and the Ki [4] was greater than 1e-05 M.
For `Cn1c(C(=O)O)cc2cc(NC(=O)c3ccc(-c4ccccc4)o3)ccc21` [Compound 118, 1-Methyl-5-[(5-phenyl-furan-2-carbonyl)-amino]-1H-indole-2-carboxylic acid], the EC50 [1, 5] was less than 0.1 µM, the “activity (EP2 part)” value [1] was “EP2 Agonist” and the Ki [2, 6] was less than 1e-06 M. For the same compound, the Ki [3] was greater than 1e-05 M and the Ki [4] was greater than 1e-05 M.
In the case of `O=C(O)/C=C/c1cccc(CC(=O)c2ccc(-c3ccccc3)o2)c1` [Compound 120, 3-{3-[2-Oxo-2-(5-phenyl-furan-2-yl)-ethyl]-phenyl}-acrylic acid], the EC50 [1, 5] is reported as less than 1 µM, the “activity (EP2 part)” value [1] is reported as “EP2 Agonist” and the Ki [2, 6] is reported as less than 1e-05 M. For the same compound, the Ki [3] was greater than 1e-05 M and the Ki [4] was greater than 1e-05 M.
In the case of `O=C(O)/C=C/c1cccc(OCc2csc(-c3ccccc3)n2)c1` [Compound 121, 3-[3-(2-Phenyl-thiazol-4-ylmethoxy)-phenyl]-acrylic acid], the EC50 [1, 5] is reported as less than 1 µM, the “activity (EP2 part)” value [1] is reported as “EP2 Agonist” and the Ki [2, 6] is reported as less than 1e-06 M. For the same compound, the Ki [3] was greater than 1e-05 M and the Ki [4] was greater than 1e-05 M.
With `O=C(O)Cc1cccc(NC(=O)c2ccc(-c3cc(F)cc(F)c3)o2)c1` [Compound 127, (3-{[5-(3,5-Difluoro-phenyl)-furan-2-carbonyl]-amino}-phenyl)-acetic acid] the EC50 [1, 5] was less than 0.1 µM, the “activity (EP2 part)” value [1] was “EP2 Agonist” and the Ki [2, 6] was less than 1e-07 M. For the same compound, the Ki [3] was greater than 1e-05 M and the Ki [4] was greater than 1e-05 M.
In the case of `O=C(O)Cc1cccc(NC(=O)c2ccc(-c3cccc(F)c3)o2)c1` [Compound 128, (3-{[5-(3-fluoro-phenyl)-furan-2-carbonyl]-amino}-phenyl)-acetic acid], the EC50 [1, 5] is reported as less than 0.1 µM, the “activity (EP2 part)” value [1] is reported as “EP2 Agonist” and the Ki [2, 6] is reported as less than 1e-06 M. For the same compound, the Ki [3] was greater than 1e-05 M and the Ki [4] was greater than 1e-05 M.
In the case of `O=C(O)/C=C/c1cccc(NC(=O)c2cccc(-c3cc(Cl)cc(Cl)c3)n2)c1` [Compound 132, 3-(3-{[6-(3,5-Dichloro-phenyl)-pyridine-2-carbonyl]-amino}-phenyl)-acrylic acid], the EC50 [1, 5] is reported as less than 0.1 µM, the “activity (EP2 part)” value [1] is reported as “EP2 Agonist” and the Ki [2, 6] is reported as less than 1e-07 M. The Ki [3] was greater than 1e-05 M and the Ki [4] was greater than 1e-05 M.
`O=C(O)CCc1cccc(NC(=O)c2cccc(-c3cc(Cl)cc(Cl)c3)n2)c1` [Compound 134, 3-(3-{[6-(3,5-Dichloro-phenyl)-pyridine-2-carbonyl]-amino}-phenyl)-propionic acid] was tested, and the EC50 [1, 5] was less than 0.1 µM, the “activity (EP2 part)” value [1] was “EP2 Agonist” and the Ki [2, 6] was less than 1e-07 M. It also gave a Ki [3] greater than 1e-05 M and a Ki [4] greater than 1e-05 M.
With `O=C(Nc1ccc2[nH]c(C(=O)O)cc2c1)c1cccc(-c2cc(Cl)cc(Cl)c2)n1` [Compound 135, 5-{[6-(3,5-Dichloro-phenyl)-pyridine-2-carbonyl]-amino}-1H-indole-2-carboxylic acid] the EC50 [1, 5] was less than 1 µM, the “activity (EP2 part)” value [1] was “EP2 Agonist” and the Ki [2, 6] was less than 1e-06 M. It also gave a Ki [3] greater than 1e-05 M and a Ki [4] greater than 1e-05 M.
`O=C(O)/C=C/c1cccc(NC(=O)c2cccc(-c3cccc(Cl)c3)n2)c1` [Compound 137, 3-(3-{[6-(3-Chloro-phenyl)-pyridine-2-carbonyl]-amino}-phenyl)-acrylic acid] was tested, and the EC50 [1] was less than 0.1 µM, the “activity (EP2 part)” value [1] was “EP2 Agonist” and the Ki [2] was less than 1e-07 M. For the same compound, the Ki [3] was less than 1e-06 M and the Ki [4] was greater than 1e-05 M.
For `O=C(O)COc1cccc(NC(=O)c2cc(-c3cccc(Cl)c3)ccc2F)c1` [Compound 140, {3-[(3′-Chloro-4-fluoro-biphenyl-3-carbonyl)-amino]-phenoxy}-acetic acid], the EC50 [1, 5] was less than 0.1 µM, the “activity (EP2 part)” value [1] was “EP2 Agonist” and the Ki [2, 6] was less than 1e-07 M. For the same compound, the Ki [3] was greater than 1e-05 M and the Ki [4] was greater than 1e-05 M.
`O=C(O)/C=C/c1cccc(NC(=O)c2cc(-c3cccc(Cl)c3)ccc2F)c1` [Compound 142, 3-{3-[(3′-Chloro-4-fluoro-biphenyl-3-carbonyl)-amino]-phenyl}-acrylic acid] was tested, and the EC50 [1, 5] was less than 0.1 µM, the “activity (EP2 part)” value [1] was “EP2 Agonist” and the Ki [2, 6] was less than 1e-07 M. It also gave a Ki [3] greater than 1e-05 M and a Ki [4] greater than 1e-05 M.
With `O=C(O)COc1cccc(NC(=O)c2cc(-c3cc(Cl)cc(Cl)c3)ccc2F)c1` [Compound 143, {3-[(3′,5′-Dichloro-4-fluoro-biphenyl-3-carbonyl)-amino]-phenoxy}-acetic acid] the EC50 [1, 5] was less than 0.1 µM, the “activity (EP2 part)” value [1] was “EP2 Agonist” and the Ki [2, 6] was less than 1e-07 M. The Ki [3] was greater than 1e-05 M and the Ki [4] was greater than 1e-05 M.
